# Experimental data from ChEMBL document CHEMBL1135456, “Inhibition of MIF bioactivity by rational design of pharmacological inhibitors of MIF tautomerase activity” (J Med Chem, 2002).
# pIC50: −log10 of the molar value.
# Molecular target: T1, Macrophage migration inhibitory factor (Homo sapiens, UniProt P14174)
# T1 sequence (P14174 whole entry): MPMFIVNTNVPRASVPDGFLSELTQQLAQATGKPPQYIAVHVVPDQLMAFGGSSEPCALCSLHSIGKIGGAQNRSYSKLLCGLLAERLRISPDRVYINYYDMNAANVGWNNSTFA
# Assay: Inhibition of human macrophage migration inhibitory factor tautomerase (MIF) activity
row,SMILES,pIC50
1,COC(=O)[C@H](CC(C)C)/N=C/c1ccc(O)cc1,< 4.00
2,COC(=O)[C@H](C)/N=C/c1ccc(O)cc1,< 4.00
3,COC(=O)[C@H](CO)/N=C/c1ccc(O)cc1,4.00
4,CC[C@H](/N=C/c1ccc(O)cc1)C(=O)OC,4.15
5,COC(=O)[C@H](CCSC)/N=C/c1ccc(O)cc1,4.00
6,COC(=O)[C@@H](Cc1ccc(O)cc1)/N=C/c1ccc(O)cc1,5.00
7,COC(=O)[C@@H](Cc1ccccc1)/N=C/c1ccc(O)cc1,4.30
